EP0402733A2, “Agent for the treatment of central nervous system illnesses and for the enhancement of cerebral blood flow” (Dr. Karl Thomae GmbH, priority 1989, dated 1990)

Legend:
[1] = target: muscarinische Rezeptoren der Pia mater des Rindes; test: Inhibition of 3H-NMS binding to muscarinic receptors of bovine pia mater homogenate; set-up: species or system Rind; conditions: 0,3 nM [³H]NMS, 45 min, room temperature
Procedure: Die Pia-Gefäße von Rinder-Hirnen, erhalten vom lokalen Schlachthof, wurden präpariert und von Blutresten gereinigt. Je 0,5 g-Portionen wurden bei 8°C bis zur weiteren Verwendung gelagert. Zur Homogenatgewinnung wurden 0,5 g Pia-Geäße mittels eines Gewebehackers zerkleinert, in 60 ml HEPES-Puffer (20 mM HEPES, 10 mM MgCl₂, 100 mM NaCl, pH 7,50) aufgenommen, mit einem Ultra-Turrax homogenisiert und 20 min. bei 0°C mit 48000 x g zentrifugiert. Das Pellet wurde erneut mit einem Ultra-Turrax homogenisiert, durch Mull filtriert und mit HEPES-Puffer auf eine Verdünnung von 1:140 bezogen auf das Feuchtgewicht der Gefäße verdünnt.
0,3 nM [³H]NMS und steigende Konzentrationen des Antagonisten wurden mit dem Homogenat in einem Gesamtvolumen von 0,52 ml für 45 min. bei Raumtemperatur inkubiert. Der Inkubationsansatz wurde mit Hilfe eines Scatron Cell Harvesters über Glasfaser-Filtermatten filtriert und zweimal mit eiskalter physiologischer Kochsalzlösung gewaschen. Die Filter-gebundene Radioaktivität wurde in einem Flüssigkeitsszintillationszähler bestimmt. Als unspezifische Bindung wurde die gebundene Radioaktivität in Gegenwart von 10⁻⁶M (-)-Chinuclidinyl-benzilat definiert.

[2] = test system: inhibitorischen Autorezeptoren in hippocampalem Gewebe; test: Transmitter release study: in vitro acetylcholine release from electrically stimulated hippocampal slices, antagonism of carbachol; type: biochemical, Ratten
Text: Die Versuche zur in-vitro Freisetzung von Acetylcholin aus hippocampalen Gewebeschnitten wurden in Analogie zu Anordnungen durchgeführt, die für die Freisetzung von 5-HT aus Hypothalamus- bzw. Hippocampus-Gewebe beschrieben sind (vgl. M.H. Richards, Naunyn Schmiedeberg's Arch. Pharmacol. 329, 359-366 (1985) und T.J. Feuerstein, G. Hertting und R. Jackisch, Europ. J. Pharmacol. 107, 233-242 (1985)).
Männliche Ratten (Stamm Chbb:Thom, Gewicht 200 bis 300 g) wurden ohne Vorbehandlung dekapitiert; das gesamte Gehirn wurde sofort entnommen und unter Eiskühlung zerlegt. Gemäß den oben beschriebenen Verfahren wurde der Hippocampus in 0,4 mm dicke Schnitte mit Hilfe eines McIlwain-Gewebehackers geschnitten. Die Gewebeschnitte wurden 30 Minuten lang bei 37°C vorincubiert in Gegenwart von 0,05 mM ³H-Cholin in einem Krebs-Henseleit Puffer der folgenden Zusammensetzung: 120 mM NaCl, 4,8 mM KCl, 1,3 mM CaCl₂, 1,2 mM KH₂PO₄, 1,2 mM MgSO₄ und 25 mM NaHCO₃. Der Puffer enthielt zusätzlich 2 g Glucose und 100 mg EDTA. Der Puffer wurde mit Natronlauge auf einen pH-Wert von 7,4 bei 20°C eingestellt. Alle Lösungen wurden kontinuierlich mit 95 % O₂ und 5 % CO₂ gesättigt. Die Gewebeschnitte wurden daraufhin gespült, jeder Gewebeschnitt wurde jeweils willkürlich auf 12 Superfusionseinheiten verteilt und mit dem Puffer bei 37°C bei einer Fließgeschwindigkeit von 1 ml/min überspült. […]

[3] = target: T1, muscarinischen Rezeptoren des Cortex (Rezeptoren vom M₁-Subtyp) (Rattus norvegicus, UniProt P08482); test: 3H-NMS binding study at muscarinic receptors of the cortex (cerebral cortex homogenate); set-up: species or system Sprague-Dawley-Ratten; conditions: 0,3 nM ³H-NMS, Großhirnrinde homogenate 1:3000, 30°C, 45 min
T1 sequence (P08482 1-460): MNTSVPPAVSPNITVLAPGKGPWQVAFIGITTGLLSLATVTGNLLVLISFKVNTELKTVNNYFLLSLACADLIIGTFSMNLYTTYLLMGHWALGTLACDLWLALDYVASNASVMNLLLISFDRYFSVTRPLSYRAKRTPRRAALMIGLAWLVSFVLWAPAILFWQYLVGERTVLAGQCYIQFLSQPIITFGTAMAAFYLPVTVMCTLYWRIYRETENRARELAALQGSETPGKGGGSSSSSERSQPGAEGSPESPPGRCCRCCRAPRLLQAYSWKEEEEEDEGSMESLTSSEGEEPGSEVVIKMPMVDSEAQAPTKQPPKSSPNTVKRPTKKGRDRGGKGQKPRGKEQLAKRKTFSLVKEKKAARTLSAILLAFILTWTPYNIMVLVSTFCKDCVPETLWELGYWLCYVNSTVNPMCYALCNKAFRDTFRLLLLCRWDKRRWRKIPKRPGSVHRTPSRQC
Text: Als Organspender dienten männliche Sprague-Dawley-Ratten mit 180-220 g Körpergewicht. Nach Entnahme der Großhirnrinde wurden alle weiteren Schritte in eiskaltem Hepes-HCl-Puffer (pH 7,4; 100 m molar NaCl, 10 m molar MgCl₂) vorgenommen. Das Gesamtherz wurde mit einer Schere zerkleinert. Alle Organe wurden abschließend in einem Potter homogenisiert.
Für den Bindungstest wurden die Organhomogenate in folgender Weise verdünnt:
Die Inkubation der Organhomogenate erfolgte bei einer bestimmten Konzentration des Radioliganden und einer Konzentrationsreihe der nichtradioaktiven Testsubstanzen im Eppendorf-Zentrifugenröhrchen bei 30°C. Die Inkubationsdauer betrug 45 Minuten. Als Radioligand wurde 0,3 n molar ³H-N-Methylscopolamin (³H-NMS) verwendet. Die Inkubation wurde durch Zugabe von eiskaltem Puffer mit nachfolgender Vakuumfiltration beendet. Die Filter wurden mit kaltem Puffer gespült und ihre Radioaktivität bestimmt. Sie repräsentiert die Summe von spezifischer und unspezifischer Bindung von ³H-NMS. Der Anteil der unspezifischen Bindung wurde defi niert als jene Radioaktivität, die in Anwesenheit von 1 µ molar Chinuclidinylbenzilat gebunden wurde. Es wurden immer Vierfachbestimmungen vorgenommen. Die IC₅₀-Werte der nichtmarkierten Testsubstanzen wurden graphisch bestimmt. […]

SMILES: CCN(CCCC(=O)N1CCC(C(=O)N(C)C)CC1)C(C)Cc1ccc(OC)cc1 (racemic) [Substanz I, (±)-1-[4-[Ethyl[2-(4-methoxyphenyl)-1-methylethyl]amino]-1-oxobutyl]-N,N-dimethyl-4-piperidincarboxamid]
- -log IC₅₀ (M) [1]: 8,2
- ACh-Release am Hippocampus-Gewebe (pA₂) ([2]; rat hippocampal slices, electrical stimulation, agonist Carbachol): 8,7
- Verhältnis von IC₅₀ (Cortex) zu pA₂(ACh-Release) ([2]; selectivity ratio: cortex (M₁) binding versus ACh release in hippocampus): 25
- Rezeptor-Bingungstests Cortex -log IC₅₀ (M) [3]: 7,3
